# Experimental data as given in BindingDB's records for doi:10.1021/jm00044a013 (Alkermes, 1994).
# Target: Calpain-1 (Sus scrofa)
# Assay: In vitro inhibition of porcine erythrocyte calpain 1.
row,Ki [nM],SMILES
1,718,CC(C)C[C@H](NC(=O)OCc1ccccc1)C(=O)N[C@H](Cc1ccccc1)C(=O)C(=O)N[C@@H](C)C(=O)O [(S)-2-[(R)-3-((S)-2-Benzyloxycarbonylamino-4-methyl-pentanoylamino)-2-oxo-4-phenyl-butyrylamino]-propionic acid]
2,92,COC(=O)[C@H](C)NC(=O)C(=O)[C@@H](Cc1ccccc1)NC(=O)[C@H](CC(C)C)NC(=O)OCc1ccccc1 [(S)-2-[(R)-3-((S)-2-Benzyloxycarbonylamino-4-methyl-pentanoylamino)-2-oxo-4-phenyl-butyrylamino]-propionic acid methyl ester]
3,> 350000,CCNC(=O)C(O)[C@@H](Cc1ccccc1)NC(=O)[C@H](CC(C)C)NC(=O)OCc1ccccc1 (stereo partly drawn) [[(S)-1-((R)-1-Benzyl-2-ethylcarbamoyl-2-hydroxy-ethylcarbamoyl)-3-methyl-butyl]-carbamic acid benzyl ester]
